Measured values reported in US6376469B1, “Crystalline amrubicin hydrochloride” (Sumitomo Pharmaceuticals Company, Limited, priority 1997, dated 2002).

Experiment: Preservation stability of crystalline amrubicin hydrochlorides (80° C., 24 hours, HPLC)
Type: physicochemical
Conditions: for remaining amount (%): crystals kept at 80° C. for 24 hours, measured by high performance liquid chromatography, amount at the starting time defined as 100%, hydrochloride
Experimental: Preservation stability of crystalline amrubicin hydrochlorides
β-Type crystalline amrubicin hydrochloride obtained in Example 1 and α-type crystalline amrubicin hydrochloride obtained in Reference example 1 were each kept at a temperature of 80° C. for 24 hours. Thereafter, the remaining amount of crystals were measured using high performance liquid chromatography. The amount at the starting time is defined as 100%.

Compound: CC(=O)[C@]1(N)Cc2c(O)c3c(c(O)c2[C@@H](OC2CC(O)C(O)CO2)C1)C(=O)c1ccccc1C3=O.Cl (stereo partly drawn) [β-type crystalline, (7S,9S)-9-acetyl-9-amino-7-[(2-deoxy-β-D-erythro-pentapyranosyl)oxy]-7,8,9, 10-tetrahydro-6,11-dihydroxy-5,12-naphthacenedione hydrochloride]
- thermal stability (comparison of crystal forms) (conclusion from Table 2, 80° C. for 24 hours): higher thermal stability than α-type crystalline amrubicin hydrochloride
- remaining amount (%): 100.4%

Compound: CC(=O)[C@]1(N)Cc2c(O)c3c(c(O)c2[C@@H](OC2CC(O)C(O)CO2)C1)C(=O)c1ccccc1C3=O.Cl (stereo partly drawn) [α-type crystalline, (7S,9S)-9-acetyl-9-amino-7-[(2-deoxy-β-D-erythro-pentapyranosyl)oxy]-7,8,9, 10-tetrahydro-6,11-dihydroxy-5,12-naphthacenedione hydrochloride, reference compound]
- remaining amount (%): 92.2%
